Results reported in patent publication US9403808B2, “Pyrazine derivatives” (Hoffmann-La Roche Inc., priority 2011, dated 2016).

Legend:
[1] = target: human CB2 receptors (Homo sapiens (Human), UniProt P34972); experiment: functional cAMP assay, CB2; type: cell-based; settings: functional cAMP assay, CHO cells expressing human CB2; read-out: human CB2 EC50
How it was run: (§1)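 CHO cells expressing human CB1 or CB2 were preincubated 30 min at 30 °C in Krebs Ringer bicarbonate buffer with 1 mM IBMX, then exposed to compound for 30 min at 30 °C. cAMP was measured by TR-FRET (cAMP-Nano-TRF) against a 10 μM–0.13 nM cAMP standard curve, and EC50 values were derived.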

[2] = target: human CB1 receptors (Homo sapiens (Human), UniProt P21554); experiment: functional cAMP assay, CB1; type: cell-based; settings: functional cAMP assay, CHO cells expressing human CB1; read-out: human CB1 EC50
How it was run: as §1

Sequence of human CB1 receptors (P21554 whole entry): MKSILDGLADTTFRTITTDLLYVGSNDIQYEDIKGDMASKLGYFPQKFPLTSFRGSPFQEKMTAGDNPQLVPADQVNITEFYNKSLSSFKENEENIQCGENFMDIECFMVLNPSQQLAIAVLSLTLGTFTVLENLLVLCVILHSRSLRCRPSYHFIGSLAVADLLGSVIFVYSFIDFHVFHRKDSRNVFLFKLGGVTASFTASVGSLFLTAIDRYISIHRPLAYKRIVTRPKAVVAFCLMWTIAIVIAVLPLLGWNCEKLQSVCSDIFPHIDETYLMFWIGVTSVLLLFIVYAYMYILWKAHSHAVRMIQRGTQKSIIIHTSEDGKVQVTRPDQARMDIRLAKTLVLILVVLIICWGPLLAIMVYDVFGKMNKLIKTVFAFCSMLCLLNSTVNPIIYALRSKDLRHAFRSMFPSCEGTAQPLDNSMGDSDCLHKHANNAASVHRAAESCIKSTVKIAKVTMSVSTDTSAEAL
Sequence of human CB2 receptors (P34972 whole entry): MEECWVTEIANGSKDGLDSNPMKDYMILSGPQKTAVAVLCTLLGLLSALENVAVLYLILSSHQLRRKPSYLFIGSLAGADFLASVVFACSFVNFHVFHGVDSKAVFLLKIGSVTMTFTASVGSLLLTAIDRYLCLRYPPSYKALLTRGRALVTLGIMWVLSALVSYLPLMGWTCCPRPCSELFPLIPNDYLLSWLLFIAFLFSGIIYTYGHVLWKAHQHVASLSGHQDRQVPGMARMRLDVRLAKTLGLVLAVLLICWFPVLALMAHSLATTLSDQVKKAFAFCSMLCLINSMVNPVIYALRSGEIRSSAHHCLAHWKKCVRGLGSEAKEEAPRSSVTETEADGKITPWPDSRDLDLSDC

Compound | EC50 [1] [nM] | EC50 [2] [µM]
Cc1nc([C@](C)(NC(=O)c2cnc(N3CC(F)(F)C3)c(OCC3CC3)n2)C2CC2)no1 [Example 87, (−)-6-Cyclopropylmethoxy-5-(3,3-difluoro-azetidin-1-yl)-pyrazine-2-carboxylic acid [1-cyclopropyl-1-(5-methyl-[1,2,4]oxadiazol-3-yl)-ethyl]-amide] | 13.2 | > 10
CC(C)C(NC(=O)c1cnc(N2CC(F)(F)C2)c(OCC2CC2)n1)C(N)=O (centres unmarked) [Example 88, 6-Cyclopropylmethoxy-5-(3,3-difluoro-azetidin-1-yl)-pyrazine-2-carboxylic acid (1-carbamoyl-2-methyl-propyl)-amide] | 79.1 | > 10
NC(=O)C1(NC(=O)c2cnc(N3CC(F)(F)C3)c(OCC3CC3)n2)CCCCC1 [Example 89, 6-Cyclopropylmethoxy-5-(3,3-difluoro-azetidin-1-yl)-pyrazine-2-carboxylic acid (1-carbamoyl-cyclohexyl)-amide] | 70.6 | > 10
CC(C)C(NC(=O)c1cnc(N2CC(F)(F)C2)c(OCC2CC2)n1)C(=O)N(C)C (centres unmarked) [Example 91, 6-Cyclopropylmethoxy-5-(3,3-difluoro-azetidin-1-yl)-pyrazine-2-carboxylic acid (1-dimethylcarbamoyl-2-methyl-propyl)-amide] | 20.5 | > 10
CC(C)C(NC(=O)c1cnc(C2CC2)c(OCC2CC2)n1)C(=O)N(C)C (centres unmarked) [Example 92, 5-Cyclopropyl-6-cyclopropylmethoxy-pyrazine-2-carboxylic acid (1-dimethylcarbamoyl-2-methyl-propyl)-amide] | 8.6 | > 10
O=C(Nc1ccc(Cl)s1)c1cnc(N2CC(F)(F)C2)c(OCC2CC2)n1 [Example 93, 6-Cyclopropylmethoxy-5-(3,3-difluoro-azetidin-1-yl)-pyrazine-2-carboxylic acid (5-chloro-thiophen-2-yl)-amide] | 74.1 | > 10
O=C(NC1(CO)CCCCC1)c1cnc(C2CC2)c(OCC2CC2)n1 [Example 94, 5-Cyclopropyl-6-cyclopropylmethoxy-pyrazine-2-carboxylic acid (1-hydroxymethyl-cyclohexyl)-amide] | 12 | > 10
COCCC(C)(C)NC(=O)c1cnc(C2CC2)c(OCC2CC2)n1 [Example 95, 5-Cyclopropyl-6-cyclopropylmethoxy-pyrazine-2-carboxylic acid (3-methoxy-1,1-dimethyl-propyl)-amide] | 22.4 | > 10
CN(C)C(=O)C(CC1CCC1)NC(=O)c1cnc(N2CC(F)(F)C2)c(OCC2CC2)n1 (centres unmarked) [Example 97, 6-Cyclopropylmethoxy-5-(3,3-difluoro-azetidin-1-yl)-pyrazine-2-carboxylic acid (2-cyclobutyl-1-dimethylcarbamoyl-ethyl)-amide] | 20.4 | > 10
CNC(=O)C(CC1CCC1)NC(=O)c1cnc(C2CC2)c(OCC2CC2)n1 (centres unmarked) [Example 98, 5-Cyclopropyl-6-cyclopropylmethoxy-pyrazine-2-carboxylic acid (2-cyclobutyl-1-methylcarbamoyl-ethyl)-amide] | 59.3 | > 10
COCCC(C)(C)NC(=O)c1cnc(N2CC(F)(F)C2)c(OCC2CC2)n1 [Example 99, 6-Cyclopropylmethoxy-5-(3,3-difluoro-azetidin-1-yl)-pyrazine-2-carboxylic acid (3-methoxy-1,1-dimethyl-propyl)-amide] | 10.3 | > 10
O=C(NC(CO)CC1CCC1)c1cnc(N2CC(F)(F)C2)c(OCC2CC2)n1 (centres unmarked) [Example 100, 6-Cyclopropylmethoxy-5-(3,3-difluoro-azetidin-1-yl)-pyrazine-2-carboxylic acid (1-cyclobutylmethyl-2-hydroxy-ethyl)-amide] | 7.3 | > 10
NC(=O)C(CC1CCC1)NC(=O)c1cnc(N2CC(F)(F)C2)c(OCC2CC2)n1 (centres unmarked) [Example 101, 6-Cyclopropylmethoxy-5-(3,3-difluoro-azetidin-1-yl)-pyrazine-2-carboxylic acid (1-carbamoyl-2-cyclobutyl-ethyl)-amide] | 5.6 | > 10
CC(C)(CCc1ccccc1)NC(=O)c1cnc(N2CC(F)(F)C2)c(OCC2CC2)n1 [Example 102, 6-Cyclopropylmethoxy-5-(3,3-difluoro-azetidin-1-yl)-pyrazine-2-carboxylic acid (1,1-dimethyl-3-phenyl-propyl)-amide] | 2.5 | > 10
CN(C)C(=O)C(CC1CCC1)NC(=O)c1cnc(C2CC2)c(OCC2CC2)n1 (centres unmarked) [Example 103, 5-Cyclopropyl-6-cyclopropylmethoxy-pyrazine-2-carboxylic acid (2-cyclobutyl-1-dimethylcarbamoyl-ethyl)-amide] | 19.2 | > 10
NC(=O)C(CC1CCC1)NC(=O)c1cnc(C2CC2)c(OCC2CC2)n1 (centres unmarked) [Example 104, 5-Cyclopropyl-6-cyclopropylmethoxy-pyrazine-2-carboxylic acid (1-carbamoyl-2-cyclobutyl-ethyl)-amide] | 42.9 | > 10
O=C(NC(CO)CC1CCC1)c1cnc(C2CC2)c(OCC2CC2)n1 (centres unmarked) [Example 105, 5-Cyclopropyl-6-cyclopropylmethoxy-pyrazine-2-carboxylic acid (1-cyclobutylmethyl-2-hydroxy-ethyl)-amide] | 37 | > 10
CC(C)(CC(N)=O)NC(=O)c1cnc(C2CC2)c(OCC2CC2)n1 [Example 106] | 43.2 | > 10
CC(C)(CC(N)=O)NC(=O)c1cnc(N2CC(F)(F)C2)c(OCC2CC2)n1 [Example 107, 6-Cyclopropylmethoxy-5-(3,3-difluoro-azetidin-1-yl)-pyrazine-2-carboxylic acid (2-carbamoyl-1,1-dimethyl-ethyl)-amide] | 11.8 | 0.874
